These results are taken from patent US11571423B2, “Small molecule modulators of human sting” (Curadev Pharma Limited, priority 2017, dated 2023).

pEC50: −log10 of the molar value. A value given as a limit tells only on which side of the number the result lay.

Sequence of hSTING(R232) (Q86WV6 whole entry H232R): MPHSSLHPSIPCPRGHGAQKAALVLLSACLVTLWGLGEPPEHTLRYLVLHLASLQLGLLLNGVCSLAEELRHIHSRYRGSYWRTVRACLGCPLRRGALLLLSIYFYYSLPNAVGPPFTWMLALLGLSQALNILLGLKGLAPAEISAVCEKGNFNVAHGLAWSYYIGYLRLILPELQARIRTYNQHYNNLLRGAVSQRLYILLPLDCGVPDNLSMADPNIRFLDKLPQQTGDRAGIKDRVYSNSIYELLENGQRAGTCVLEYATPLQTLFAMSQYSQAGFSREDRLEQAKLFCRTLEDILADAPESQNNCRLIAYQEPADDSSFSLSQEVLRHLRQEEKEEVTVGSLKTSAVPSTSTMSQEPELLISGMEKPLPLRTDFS

The test concerns the target hSTING(R232) (Homo sapiens, UniProt Q86WV6, H232R). The test is described as follows: Luciferase reporter assay in HEK293T-hSTING-Luciferase cells, R232 (wild type) human STING. It counts as cell-based. The following applies: 20 hr stimulation, read-out: R232 human activity (EC50 range). The method in brief:
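Clonal HEK293T cells stably expressing STING from a pUNO-1 plasmid plus an ISRE/ISG54-driven secreted luciferase reporter; 5×10^5 cells stimulated with compound for 20 hr. Supernatant luciferase read by luminescence, giving fold-induction over baseline and EC50.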
In general terms: In a reporter assay the amount or activity of a reporter protein is the signal.
`CN1Cc2ccc(C(=O)NCc3c(F)cc(F)cc3F)cc2N(Cc2c(F)cccc2C(F)(F)F)C1=O` [Example 56, 1-(2-fluoro-6-(trifluoromethyl)benzyl)-3-methyl-2-oxo-N-(2,4,6-trifluorobenzyl)-1,2,3,4-tetrahydroquinazoline-7-carboxamide]: the pEC50 (in general, the negative decadic logarithm of the EC50, by convention in mol/L) is 5.00 to 6.00.

In the case of `CC1c2ccc(C(=O)NCc3c(F)cc(F)cc3F)cc2N(Cc2c(F)cccc2Br)C(=O)N1C` (stereo not drawn) [Example 159, 1-(2-bromo-6-fluorobenzyl)-3,4-dimethyl-2-oxo-N-(2,4,6-trifluorobenzyl)-1,2,3,4-tetrahydroquinazoline-7-carboxamide], the pEC50 was over 6.00. For `CC(=O)Nc1cccc(F)c1CN1C(=O)N(C)C(C)c2ccc(C(=O)NCc3c(F)cc(F)cc3F)cc21` (stereo not drawn) [Example 226, 1-(2-acetamido-6-fluorobenzyl)-3,4-dimethyl-2-oxo-N-(2,4,6-trifluorobenzyl)-1,2,3,4-tetrahydroquinazoline-7-carboxamide], the pEC50 was 5.00 to 6.00. The value for `CC1c2ccc(C(=O)NCc3c(F)cc(F)cc3F)cc2N(Cc2cc(F)cc(F)c2)C(=O)N1C` (stereo not drawn) [Example 156, 1-(3,5-difluorobenzyl)-3,4-dimethyl-2-oxo-N-(2,4,6-trifluorobenzyl)-1,2,3,4-tetrahydroquinazoline-7-carboxamide] was over 6.00; that for `CC1c2ccc(C(=O)NCc3c(F)cc(F)cc3F)cc2N(Cc2c(F)cc(Cl)cc2F)C(=O)N1C` (stereo not drawn) [Example 222, 1-(4-chloro-2,6-difluorobenzyl)-3,4-dimethyl-2-oxo-N-(2,4,6-trifluorobenzyl)-1,2,3,4-tetrahydroquinazoline-7-carboxamide] was over 6.00. Turning to `CN1Cc2ccc(C(=O)NCc3cccc(-c4ncco4)c3)cc2N(Cc2c(F)cccc2Cl)C1=O` [Example 25, 1-(2-chloro-6-fluorobenzyl)-3-methyl-N-(3-(oxazol-2-yl)benzyl)-2-oxo-1,2,3,4-tetrahydroquinazoline-7-carboxamide], the pEC50 is under 5.00. Consider `O=C(NCc1c(F)cc(F)cc1F)c1ccc2c(c1)N(Cc1cc(F)cc(F)c1)C(=O)NC2` [Example 18, 1-(3,5-difluorobenzyl)-2-oxo-N-(2,4,6-trifluorobenzyl)-1,2,3,4-tetrahydroquinazoline-7-carboxamide], for which the pEC50 was 5.00 to 6.00.

Consider `CN1Cc2ccc(C(=O)NCc3c(F)cc(F)cc3F)cc2N(Cc2cccc(C(N)=O)c2)C1=O` [Example 14, 1-(3-carbamoylbenzyl)-3-methyl-2-oxo-N-(2,4,6-trifluorobenzyl)-1,2,3,4-tetrahydroquinazoline-7-carboxamide], for which the pEC50 is 5.00 to 6.00. On to `CN1Cc2ccc(C(=O)NCc3c(F)cc(F)cc3F)cc2N(Cc2cc(C3CC3)no2)C1=O` [Example 64, 1-((3-cyclopropylisoxazol-5-yl)methyl)-3-methyl-2-oxo-N-(2,4,6-trifluorobenzyl)-1,2,3,4-tetrahydroquinazoline-7-carboxamide], for which the pEC50 was under 5.00.

For the compound `CC1c2ccc(C(=O)NCc3c(F)cc(F)cc3F)cc2N(Cc2c(F)cccc2OC(F)F)C(=O)N1C` (stereo not drawn) [Example 216, 1-(2-(difluoromethoxy)-6-fluorobenzyl)-3,4-dimethyl-2-oxo-N-(2,4,6-trifluorobenzyl)-1,2,3,4-tetrahydroquinazoline-7-carboxamide], the pEC50 was over 6.00. With `CC1c2ccc(C(=O)NCc3c(F)cc(F)cc3F)cc2N(Cc2c(F)cccc2OCC(=O)O)C(=O)N1C` (stereo not drawn) [Example 234, 2-(2-((3,4-dimethyl-2-oxo-7-((2,4,6-trifluorobenzyl)carbamoyl)-3,4-dihydroquinazolin-1(2H)-yl)methyl)-3-fluorophenoxy)acetic acid] the figure was under 5.00; with `CC1c2ccc(C(=O)NCc3c(F)cc(F)cc3F)cc2N(Cc2ccc(OCC(=O)O)cc2F)C(=O)N1C` (stereo not drawn) [Example 228, 2-(4-((3,4-dimethyl-2-oxo-7-((2,4,6-trifluorobenzyl)carbamoyl)-3,4-dihydroquinazolin-1(2H)-yl)methyl)-3-fluorophenoxy)acetic acid], under 5.00. With `CN1Cc2ccc(C(=O)NCc3c(F)cc(F)cc3F)cc2N(Cc2cc(F)cc(F)c2)C1=O` [Example 1, 1-(3,5-difluorobenzyl)-3-methyl-2-oxo-N-(2,4,6-trifluorobenzyl)-1,2,3,4-tetrahydroquinazoline-7-carboxamide], the pEC50 was over 6.00.

For `C[C@H]1c2ccc(C(=O)NCc3c(F)cc(F)cc3F)cc2N(Cc2cc(O)c(O)cc2F)C(=O)N1C` [Example 274, (S)-1-(2-fluoro-4,5-dihydroxybenzyl)-3,4-dimethyl-2-oxo-N-(2,4,6-trifluorobenzyl)-1,2,3,4-tetrahydroquinazoline-7-carboxamide], the pEC50 is 5.00 to 6.00.

As to `CN1Cc2ccc(C(=O)NCc3c(F)cc(F)cc3F)cc2N(Cc2ccnn2C)C1=O` [Example 53, 3-methyl-1-((1-methyl-1H-pyrazol-5-yl)methyl)-2-oxo-N-(2,4,6-trifluorobenzyl)-1,2,3,4-tetrahydroquinazoline-7-carboxamide], the pEC50 is under 5.00. For `C[C@H]1c2ccc(C(=O)NCc3ccc(F)cc3O)cc2N(Cc2c(F)cccc2Cl)C(=O)N1C` [Example 253, (S)-1-(2-chloro-6-fluorobenzyl)-N-(4-fluoro-2-hydroxybenzyl)-3,4-dimethyl-2-oxo-1,2,3,4-tetrahydroquinazoline-7-carboxamide], the pEC50 is 5.00 to 6.00. Consider `Cc1cc(CN2C(=O)N(C)C(C)c3ccc(C(=O)NCc4c(F)cc(F)cc4F)cc32)on1` (stereo not drawn) [Example 199, 3,4-dimethyl-1-((3-methylisoxazol-5-yl)methyl)-2-oxo-N-(2,4,6-triflurobenzyl)-1,2,3,4-tetrahydroquinazoline-7-carboxamide], for which the pEC50 was under 5.00. On to `C[C@H]1c2ccc(C(=O)NCc3c(F)cc(F)cc3F)cc2N(Cc2c(OCCOP(=O)(O)O)ccc(F)c2F)C(=O)N1C` [Example 91, (S)-2-(2-((3,4-dimethyl-2-oxo-7-((2,4,6-trifluorobenzyl)carbamoyl)-3,4-dihydroquinazolin-1(2H)-yl)methyl)-3,4-difluorophenoxy)ethyl dihydrogen phosphate], for which the pEC50 was over 6.00. For `C[C@H]1c2ccc(C(=O)NCc3c(F)cc(F)cc3F)cc2N(Cc2c(OCC(=O)O)ccc(F)c2F)C(=O)N1C` [Example 244, (S)-2-(2-((3,4-dimethyl-2-oxo-7-((2,4,6-trifluorobenzyl)carbamoyl)-3,4-dihydroquinazolin-1(2H)-yl)methyl)-3,4-difluorophenoxy)acetic acid], the pEC50 is over 6.00.

Consider `CC1c2ccc(C(=O)NCc3c(F)cc(F)cc3F)cc2N(Cc2c(F)cccc2Br)C(=O)N1C` (stereo not drawn) [Example 158, 1-(2-bromo-6-fluorobenzyl)-3,4-dimethyl-2-oxo-N-(2,4,6-trifluorobenzyl)-1,2,3,4-tetrahydroquinazoline-7-carboxamide], for which the negative-log EC50 (pEC50) was over 6.00.

As for `CC1c2ccc(C(=O)NCc3c(F)cc(F)cc3F)cc2N(Cc2ccccc2F)C(=O)N1C` (stereo not drawn) [Example 201, 1-(2-fluorobenzyl)-3,4-dimethyl-2-oxo-N-(2,4,6-trifluorobenzyl)-1,2,3,4-tetrahydroquinazoline-7-carboxamide], the pEC50 is over 6.00.

For `CN1Cc2ccc(C(=O)NCc3c(F)cc(F)cc3F)cc2N(Cc2ccccc2Cl)C1=O` [Example 19, l-(2-chlorobenzyl)-3-methyl-2-oxo-N-(2,4,6-trifluorobenzyl)-1,2,3,4-tetrahydroquinazoline-7-carboxamide], the pEC50 is 5.00 to 6.00. With `CN1Cc2ccc(C(=O)NCc3cc4ccccc4o3)cc2N(Cc2cc(F)cc(F)c2)C1=O` [Example 16, N-(benzofuran-2-ylmethyl)-1-(3.5-difluorobenzyl)-3-methyl-2-oxo-1,2,3,4-tetrahydroquinazoline-7-carboxamide] the figure was 5.00 to 6.00; with `CN1Cc2ccc(C(=O)NCc3ccc4ccoc4c3)cc2N(Cc2c(F)cccc2Cl)C1=O` [Example 52, N-(benzofuran-6-ylmethyl)-1-(2-chloro-6-fluorobenzyl)-3-methyl-2-oxo-1,2,3,4-tetrahydroquinazoline-7-carboxamide], 5.00 to 6.00. As to `Cc1ccc(-c2nc(CN3C(=O)N(C)Cc4ccc(C(=O)NCc5c(F)cc(F)cc5F)cc43)c(C)o2)cc1` [Example 40, 3-methyl-1-((5-methyl-2-(p-tolyl)oxazol-4-yl)methyl)-2-oxo-N-(2,4,6-trifluorobenzyl)-1,2,3,4-tetrahydroquinazoline-7-carboxamide], the pEC50 was under 5.00.

For `CN1Cc2ccc(C(=O)NCc3c(F)cc(F)cc3F)cc2N(Cc2c(Cl)cccc2Cl)C1=O` [Example 62, l-(2,6-dichlorobenzyl)-3-methyl-2-oxo-N-(2,4,6-trifluorobenzyl)-1,2,3,4-tetrahydroquinazoline-7-carboxamide], the pEC50 was 5.00 to 6.00.

Take `C[C@H]1c2ccc(C(=O)NCc3c(F)cc(F)cc3F)cc2N(Cc2c(OP(=O)(O)O)ccc(F)c2F)C(=O)N1C` [Example 99, (S)-2-((3,4-dimethyl-2-oxo-7-((2,4,6-trifluorobenzyl)carbamoyl)-3,4-dihydroquinazolin-1(2H)-yl)methyl)-3,4-difluorophenyl dihydrogen phosphate]: the pEC50 is 5.00 to 6.00. As for `CC1c2ccc(C(=O)NCc3c(F)cc(F)cc3F)cc2N(Cc2c(N)cccc2F)C(=O)N1C` (stereo not drawn) [Example 173, 1-(2-amino-6-fluorobenzyl)-3,4-dimethyl-2-oxo-N-(2,4,6-trifluorobenzyl)-1,2,3,4-tetrahydroquinazoline-7-carboxamide], the pEC50 was over 6.00. For the compound `CN1Cc2ccc(C(=O)NCc3c(F)cc(F)cc3F)cc2N(Cc2ccc(F)cc2F)C1=O` [Example 8, 1-(2,4-difluorobenzyl)-3-methyl-2-oxo-N-(2,4,6-trifluorobenzyl)-1,2,3,4-tetrahydroquinazoline-7-carboxamide], the pEC50 is over 6.00. With `CN1Cc2ccc(C(=O)NCc3ccc4occc4c3)cc2N(Cc2c(F)cccc2Cl)C1=O` [Example 32, N-(benzofuran-5-ylmethyl)-1-(2-chloro-6-fluorobenzyl)-3-methyl-2-oxo-1,2,3,4-tetrahydroquinazoline-7-carboxamide] the figure was 5.00 to 6.00.
